The subject of experiment [1] is ventricular muscle (right ventricle). Put plainly: Influence on Ventricular Muscle Refractory Period (ERP). It is filed as in vivo, mongrel adult dog. Particulars: Canis lupus familiaris, iv, anesthetized dog, read-out: ERP (%; extensibility of refractory period); for change in vivo at 0.1 mg/kg: Dose 0.1 mg/kg i.v.; for change in vivo at 0.3 mg/kg: Dose 0.3 mg/kg i.v.; for change in vivo at 1 mg/kg: Dose 1.0 mg/kg i.v.; for change in vivo at 3 mg/kg: Dose 3.0 mg/kg i.v. The method, then: Refractory periods were measured in the following manner before and after each of the compounds and d-sotalol shown an Table A was separately administered to a vein or a duodenum, and ERP (%; extensibility of refractory period) was calculated from the measured values in accordance with the following formula: […]
W: Refractory period after administration
Y: Refractory period before administration
To a mongrel adult dog, 30 mg/kg of pentobarbital was administered intravenously, and after being anesthetized, a pair of silver-silver chloride electrodes separated by 3 mm was sewn on an opened right ventricule, and electrical stimulation was given at an interval of 400 msec at a duration time of 4 msec under a current twice as much as the threshold. Afterward, a small amount of alcohol was injected into a sinus artery in order to extinguish a pacemaker activity, and the ventricular refractory period (ERP) was measured under ventricule pacing.
That is, 1 train comprised 10 stimulations, and an interval between two of the trains was usually 400 msec. At the time of the refractory period measurement, however, the above interval was shortened every 10 smec, and the interval between the trains at the time when reaction to the first stimulation of the train disappeared was regarded as the refractory period.
In this case, the electrical stimulation was fed in accordance with a program by a heart stimulation device (Diamedical Co., Ltd.; DHM-226-3).

The subject of experiment [2] is Purkinje fiber of the right ventricular free wall. Put plainly: Influence on Myocardial Action Potential Duration Time (APD75). Type of experiment: cell-based, hybrid adult dog. The note with it: Canis lupus familiaris, 20 min, 20 minutes' incubation, 1 Hz, 37° C.; for percent prolongation of action potential duration (APD75) at 3 µg/mL: Dose 3.0 (μg, ml); for percent prolongation of action potential duration (APD75) at 1 µg/mL: Dose 1.0 (μg, ml); for percent prolongation of action potential duration (APD75) at 10 µg/mL: Dose 10.0 (μg, ml). Here is the method:
To a hybrid adult dog, 30 mg/kg of pentobarbital was administered through a vein, and after being anesthetized, the heart was removed. Afterward, the right ventricular free wall of the heart was cut and taken out in a Tyrode solution.
The taken right ventricular free wall was fixed in an incubator at 37° C., and a nutritional solution (20 ml of the Tyrode solution) was refluxed.
In this isolated condition, myocardial action potential duration times (APD75) were measured before and after the administration of the respective compounds prepared in the above examples in Table A and d-sotalol as a control medicine, and APD75 (%) was calculated from the measured results in accordance with the formula: […]
A: APD75 before administration
B: APD75 after administration
Here, APD75 was measured as follows: A field stimulation of 1 Hz was given to the right ventricular free wall, and any variation of an action potential was depicted on an oscilloscope via a glass microelectrode (10 to 20 M.OMEGA.) thrust into a Purkinje fiber of the free wall and via an amplifier. Afterward, a waveform on the oscilloscope was analyzed by the use of a computer, and the time of from a point of the action potential generation to a point of 75% repolarization was measured. This measured time was regarded as the myocardial action potential duration time (APD75).
The compounds and d-sotalol shown in Table A were separately added to the refluxing nutritional solution (20 ml), and after 20 minutes' incubation, APD75 after the administration was calculated from the variation of the myocardial action potential duration time.
Incidentally, this test was carried out in accordance with a Sato et al's method [H. Sato, K. Hashimoto, Arzneimeittel Forschung, 34 (1), 3a, 376-380 (1984)].

The structures appear in SMILES notation. Structures can show the parent of a compound that is named as a salt.

Regarding `Cn1c(N2CCN(CCCOc3ccccc3N=[N+]=[N-])CC2)cc(=O)n(C)c1=O` [Compound 36], in experiment [1], the change in vivo at 0.1 mg/kg amounted to 0%, the change in vivo at 0.3 mg/kg came out at 7.1%, the change in vivo at 1 mg/kg was found to be 7.1% and the change in vivo at 3 mg/kg turned out to be 14.3%. In experiment [2], this compound had a percent prolongation of action potential duration (APD75) at 3 µg/mL of 17%.

For `Cn1c(N2CCN(CCCOc3cccc(C#N)c3)CC2)cc(=O)n(C)c1=O` [Compound 12], in experiment [1], the change in vivo at 0.1 mg/kg is 0%, the change in vivo at 0.3 mg/kg is 2.1%, the change in vivo at 1 mg/kg turned out to be 4.3% and the change in vivo at 3 mg/kg is 17%. Moreover, in experiment [2], the percent prolongation of action potential duration (APD75) at 1 µg/mL came out at 4%, the percent prolongation of action potential duration (APD75) at 3 µg/mL is 11% and the percent prolongation of action potential duration (APD75) at 10 µg/mL turned out to be 28%.

As for `Cn1c(N2CCN(CCCc3ccccc3)CC2)cc(=O)n(C)c1=O` [Compound 89, 1,3-dimethyl-6-[4-(3-phenylpropyl)piperazin-1-yl]-2,4(1H,3H)-pyrimidinedione.hydrochloride], in experiment [1], the change in vivo at 0.1 mg/kg worked out at 0%, the change in vivo at 0.3 mg/kg was 5.7%, the change in vivo at 1 mg/kg was 9.7% and the change in vivo at 3 mg/kg worked out at 14%. Also, in experiment [2], the percent prolongation of action potential duration (APD75) at 1 µg/mL came to 15%, the percent prolongation of action potential duration (APD75) at 3 µg/mL stood at 26% and the percent prolongation of action potential duration (APD75) at 10 µg/mL is 31%.

For `Cn1c(N2CCN(CCCOc3ccc(Cl)cc3S(C)(=O)=O)CC2)cc(=O)n(C)c1=O` [Compound 50], in experiment [1], the change in vivo at 0.1 mg/kg was determined as 0%, the change in vivo at 0.3 mg/kg is 5.6%, the change in vivo at 1 mg/kg worked out at 5.6% and the change in vivo at 3 mg/kg came out at 11.1%. In experiment [2], this compound yielded a percent prolongation of action potential duration (APD75) at 1 µg/mL of 6%, a percent prolongation of action potential duration (APD75) at 3 µg/mL of 15% and a percent prolongation of action potential duration (APD75) at 10 µg/mL of 26%.

Turning to `Cn1c(N2CCN(CCCOc3ccc(Cl)cc3C(=O)c3ccccc3)CC2)cc(=O)n(C)c1=O` [Compound 51], in experiment [1], the change in vivo at 0.1 mg/kg amounted to 0%, the change in vivo at 0.3 mg/kg worked out at 6.3%, the change in vivo at 1 mg/kg turned out to be 6.3% and the change in vivo at 3 mg/kg turned out to be 12.5%. Besides, the percent prolongation of action potential duration (APD75) at 0.3 µg/mL in experiment [2] (Dose 0.3 (μg, ml)) is 11%. In experiment [2], the percent prolongation of action potential duration (APD75) at 1 µg/mL stood at 19% and the percent prolongation of action potential duration (APD75) at 3 µg/mL turned out to be 24%.

Take `Cn1c(N2CCN(CCCOc3ccc(C(=O)c4ccccc4)cc3)CC2)cc(=O)n(C)c1=O` [Compound 9]: in experiment [1], the change in vivo at 0.1 mg/kg was found to be 5.6%, the change in vivo at 0.3 mg/kg came out at 5.6%, the change in vivo at 1 mg/kg turned out to be 11.1% and the change in vivo at 3 mg/kg was found to be 16.7%. In experiment [2], this compound came in with a percent prolongation of action potential duration (APD75) at 1 µg/mL of 6%, a percent prolongation of action potential duration (APD75) at 3 µg/mL of 21% and a percent prolongation of action potential duration (APD75) at 10 µg/mL of 30%.

`Cn1c(N2CCN(CCc3ccc(Cl)cc3)CC2)cc(=O)n(C)c1=O` [Compound 91, 1,3-dimethyl-6-[4-(2-[4-chlorophenyl]-ethyl)piperazin-1-yl]-2,4(1H,3H)-pyrimidinedione.hydrochloride]: in experiment [1], the change in vivo at 0.1 mg/kg was determined as 3.5%, the change in vivo at 0.3 mg/kg turned out to be 6.5% and the change in vivo at 1 mg/kg was 14.5%. In experiment [2], this compound returned a percent prolongation of action potential duration (APD75) at 1 µg/mL of 13% and a percent prolongation of action potential duration (APD75) at 3 µg/mL of 25%.

Regarding `Cn1c(N2CCN(CCCOc3ccc(F)cc3)CC2)cc(=O)n(C)c1=O` [Compound 1, 1,3-dimethyl-6-[4-(3-[4-fluorophenoxy]propyl)piperazin-1-yl]-2,4(1H,3H)-pyrimidinedione.hydrochloride], in experiment [1], the change in vivo at 0.1 mg/kg came out at 6%, the change in vivo at 0.3 mg/kg amounted to 12%, the change in vivo at 1 mg/kg came to 15.8% and the change in vivo at 3 mg/kg turned out to be 24.3%. In experiment [2], this compound displayed a percent prolongation of action potential duration (APD75) at 1 µg/mL of 17%, a percent prolongation of action potential duration (APD75) at 3 µg/mL of 22% and a percent prolongation of action potential duration (APD75) at 10 µg/mL of 30%.

These data come from US5332739A, “Pyrimidinedione derivatives and antiarrhythmic agents containing same” (Mitsui Toatsu Chemicals, Incorporated, priority 1990, dated 1994).
